# Measured values: the supplement of paper PMC10307832
# How the values were obtained:
# Assay in all cases: relative viability (nuclei count vs DMSO), 5 days (fraction); higher = more cells survive
# [1] = system: NCI-H838
# Method in brief: (§1)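 One day after seeding in 1536-well plates, lung cancer cell lines were dosed by pin tool. Dosing was either single-drug or a fixed anchor-drug dose plus five library-drug doses (not always all listed) in √10 steps. After 5 days, nuclei were stained in one fix-and-stain step and counted on 4× images, and relative viability is the nuclei count of treated wells over that of vehicle wells, given as the median of duplicate plates.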
# [2] = system: PC-3 [JPC-3]
# Method in brief: as §1
# [3] = system: NCI-H650
# Method in brief: as §1
# [4] = system: EBC-1
# Method in brief: as §1
# [5] = system: RERF-LC-KJ
# Method in brief: as §1
# [6] = system: A549
# Method in brief: as §1
# [7] = system: NCI-H1651
# Method in brief: as §1
# [8] = system: NCI-H520
# Method in brief: as §1
# [9] = system: Calu-6
# Method in brief: as §1
# [10] = system: IA-LM
# Method in brief: as §1
# [11] = system: NCI-H1703
# Method in brief: as §1
# [12] = system: NCI-H1299
# Method in brief: as §1
# [13] = system: NCI-H1944
# Method in brief: as §1
smiles,measurement,setting,value
CC(=O)O[C@@]12CO[C@@H]1C[C@H](O)[C@@]1(C)C(=O)[C@H](O)C3=C(C)[C@@H](OC(=O)[C@H](O)[C@@H](NC(=O)OC(C)(C)C)c4ccccc4)C[C@@](O)([C@@H](OC(=O)c4ccccc4)[C@H]21)C3(C)C [Docetaxel] + C[C@]1(O)C[C@@H](c2nc(-c3ccc4ccc(-c5ccccc5)nc4c3)c3c(N)nccn32)C1 [Linsitinib] (partner 1 µM),relative viability,[1]; first compound 0.0002 µM,0.98
same,relative viability,[1]; first compound 0.000632 µM,1.1
same,relative viability,[1]; first compound 0.002 µM,0.247
same,relative viability,[1]; first compound 0.006325 µM,0.166
same,relative viability,[1]; first compound 0.02 µM,0.145
same,relative viability,[2]; first compound 0.0002 µM,0.983
same,relative viability,[2]; first compound 0.000632 µM,0.96
same,relative viability,[2]; first compound 0.002 µM,0.863
same,relative viability,[2]; first compound 0.006325 µM,0.37
same,relative viability,[2]; first compound 0.02 µM,0.184
same,relative viability,[3]; first compound 0.0002 µM,0.657
same,relative viability,[3]; first compound 0.000632 µM,0.341
same,relative viability,[3]; first compound 0.002 µM,0.312
same,relative viability,[3]; first compound 0.006325 µM,0.255
same,relative viability,[3]; first compound 0.02 µM,0.152
same,relative viability,[4]; first compound 0.0002 µM,0.776
same,relative viability,[4]; first compound 0.000632 µM,0.872
same,relative viability,[4]; first compound 0.002 µM,0.204
same,relative viability,[4]; first compound 0.006325 µM,0.271
same,relative viability,[4]; first compound 0.02 µM,0.129
same,relative viability,[5]; first compound 0.0002 µM,0.864
same,relative viability,[5]; first compound 0.000632 µM,0.826
same,relative viability,[5]; first compound 0.002 µM,0.504
same,relative viability,[5]; first compound 0.006325 µM,0.207
same,relative viability,[5]; first compound 0.02 µM,0.145
same,relative viability,[6]; first compound 0.0002 µM,0.578
same,relative viability,[6]; first compound 0.000632 µM,0.372
same,relative viability,[6]; first compound 0.002 µM,0.0857
same,relative viability,[6]; first compound 0.006325 µM,0.0667
same,relative viability,[6]; first compound 0.02 µM,0.036
same,relative viability,[7]; first compound 0.0002 µM,0.876
same,relative viability,[7]; first compound 0.000632 µM,0.746
same,relative viability,[7]; first compound 0.002 µM,0.229
same,relative viability,[7]; first compound 0.006325 µM,0.112
same,relative viability,[7]; first compound 0.02 µM,0.117
same,relative viability,[8]; first compound 0.0002 µM,1.06
same,relative viability,[8]; first compound 0.000632 µM,0.887
same,relative viability,[8]; first compound 0.002 µM,0.277
same,relative viability,[8]; first compound 0.006325 µM,0.182
same,relative viability,[8]; first compound 0.02 µM,0.133
same,relative viability,[9]; first compound 0.0002 µM,0.819
same,relative viability,[9]; first compound 0.000632 µM,0.968
same,relative viability,[9]; first compound 0.002 µM,0.332
same,relative viability,[9]; first compound 0.006325 µM,0.142
same,relative viability,[9]; first compound 0.02 µM,0.0881
same,relative viability,[10]; first compound 0.0002 µM,0.351
same,relative viability,[10]; first compound 0.000632 µM,0.449
same,relative viability,[10]; first compound 0.002 µM,0.112
same,relative viability,[10]; first compound 0.006325 µM,0.0528
same,relative viability,[10]; first compound 0.02 µM,0.042
same,relative viability,[11]; first compound 0.0002 µM,0.741
same,relative viability,[11]; first compound 0.000632 µM,1.15
same,relative viability,[11]; first compound 0.002 µM,0.258
same,relative viability,[11]; first compound 0.006325 µM,0.116
same,relative viability,[11]; first compound 0.02 µM,0.101
same,relative viability,[12]; first compound 0.0002 µM,0.905
same,relative viability,[12]; first compound 0.000632 µM,0.98
same,relative viability,[12]; first compound 0.002 µM,0.787
same,relative viability,[12]; first compound 0.006325 µM,0.432
same,relative viability,[12]; first compound 0.02 µM,0.255
same,relative viability,[13]; first compound 0.0002 µM,1.11
same,relative viability,[13]; first compound 0.000632 µM,1.13
same,relative viability,[13]; first compound 0.002 µM,1.18
same,relative viability,[13]; first compound 0.006325 µM,0.349
same,relative viability,[13]; first compound 0.02 µM,0.208
